What was measured:
Type in all cases: in vivo
[1] = system: U14 (mouse cervical cancer) homografts; test: U14 homograft (syngeneic) growth inhibition in ICR mice; settings: ITE 200 mg/kg i.p. once daily
Procedure: (§1) All the procedures related to animal handling, care, and the treatment in the study were performed following guidelines of KeyGen Biotechn Co., Ltd. (Nanjing, China), a contract research organization we hired, based on the guidance of the Association for Assessment and Accreditation of Laboratory Animal Care (AAALAC). Animals were checked for any effects of tumor growth and drug treatment on normal behavior such as mobility, food and water consumption, body weight gain/loss (bodyweights were measured every two days), eye/hair matting, and any other abnormal effect. Death and observed clinical signs were recorded. Individual animals with a tumor volume exceeding 3,000 mm^3 or animals of a group with a mean tumor volume exceeding 2,000 mm^3 were euthanized. In addition, animals showing signs of severe distress and/or pain or losing the capability of accessing adequate food or water were humanely sacrificed.
(§2) Cell lines HCT116, Siha, MFC were cultured in DMEM medium (high glucose) supplemented with 10% fetal bovine serum (FBS), SW116 and T24 in RPMI-1640 medium with 10% FBS, M14 and A375 in DMEM medium (high glucose) with 10% calf serum (CS), SGC7901 and Ketr-3 in RPMI-1640 medium with 10% CS, and CFPAC-1 in IMDM medium with 10% FBS. All of the cells were cultured, in the presence of 100 U/ml penicillin and 100 μg/ml streptomycin, at 37° C. in an atmosphere of 5% CO2 in air. […] The cells growing in an exponential phase were harvested and counted for tumor inoculation. Cell lines 5180 and U14 were maintained in ascites (peritoneal cavity fluid) of mice and were harvested and counted for tumor inoculation. […]
(§3) Tumor volume was measured every two days in two dimensions using a caliper and the volume was calculated with a formula of: V=0.5 a×b^2, where a and b are the long and short diameter (in mm) of a tumor, respectively. […] The TGD was calculated as: TGD=T−C, where T was the time (in days) required for tumors in a drug treated group to reach a predetermined mean tumor volume and C the time (in days) in the control group to reach the same volume. […]

[2] = system: HCT116 (human colon cancer) xenografts; test: HCT116 xenograft growth inhibition; settings: ITE 100-200 mg/kg i.p. once daily
Procedure: as §1, §2, §3

[3] = system: T24 (Human bladder cancer) xenografts; test: T24 xenograft growth inhibition; settings: ITE 100-200 mg/kg i.p. once daily
Procedure: as §1, §2, §3

[4] = end of therapy relative to beginning

COC(=O)c1csc(C(=O)c2c[nH]c3ccccc23)n1 [ITE, 2-(1′H-indole-3′-carbonyl)-thiazole-4-carboxylic acid methyl ester]
TGD ([1]; TGD at Vol. 2,000): 3 days
TGI (%) ([1]; TGI at day 6, TGI=(1−ΔT/ΔC)×100%): 46%
Weight Loss [1, 4]: 4%
TGD ([2]; TGD at Vol. 1,000): 3 days
TGI (%) ([2]; TGI at day 18, TGI=(1−ΔT/ΔC)×100%): 41%
Weight Loss [2, 4]: 9%
TGD ([3]; TGD at Vol. 1,000): 9 days
TGI (%) ([3]; TGI at day 26, TGI=(1−ΔT/ΔC)×100%): 66%
Weight Loss [3, 4]: 13%
